From EPA's ToxRefDB 2

Key:
[1] = tested on: rat; conditions: Prenatal developmental toxicity study, sprague dawley, Oral, Gavage/Intubation, dose end: 20 GD
[2] = tested on: rat; conditions: Combined chronic toxicity/carcinogenicity, sprague dawley, Inhalation, Whole-Body, dose end: 2 year, group: systemic
[3] = tested on: mouse; conditions: Prenatal developmental toxicity study, other, Injection, Intraperitoneal, dose end: 15 GD
[4] = tested on: rat; conditions: Subchronic oral toxicity in rodents, wistar, Feed, dose end: 104 day, group: systemic
[5] = tested on: mouse; conditions: Subchronic inhalation toxicity, other, Whole-Body, dose end: 13 week, group: systemic
[6] = tested on: rat; conditions: Prenatal developmental toxicity study; long evans; Inhalation; Whole-Body; dose end: 15 GD; group: developmental; systemic / in life observation / body weight / fetal weight
[7] = tested on: mouse; conditions: Subchronic inhalation toxicity, b6c3f1, Whole-Body, dose end: 12 week, group: systemic
[8] = tested on: rat; conditions: Subchronic inhalation toxicity, fischer, Whole-Body, dose end: 12 week, group: systemic
[9] = tested on: rabbit; conditions: Prenatal developmental toxicity study, himalayan, Dermal, Topical, dose end: 18 GD
[10] = tested on: rabbit; conditions: Prenatal developmental toxicity study, himalayan, Inhalation, Whole-Body, dose end: 19 GD
[11] = tested on: mouse; conditions: Carcinogenicity; cd1; Inhalation; Whole-Body; dose end: 18 month; group: systemic; systemic / pathology microscopic / liver / hemosiderosis + systemic / pathology microscopic / liver / hyperplasia + systemic / pathology …
[12] = tested on: rat; conditions: Subchronic inhalation toxicity, fischer, Whole-Body, dose end: 13 week, group: systemic
[13] = tested on: rat; conditions: Prenatal developmental toxicity study, sprague dawley, Oral, Gavage/Intubation, dose end: 15 GD
[14] = tested on: mouse; conditions: Prenatal developmental toxicity study, other, Oral, Gavage/Intubation, dose end: 15 GD, group: developmental
[15] = tested on: mouse; conditions: Multigenerational reproductive toxicity study, cd1, Oral, Water, dose end: 2 generation
[16] = tested on: mouse; conditions: Subchronic oral toxicity in rodents, cd1, Feed, dose end: 119 day, group: systemic
[17] = group: developmental, developmental / developmental malformation / bone / incomplete ossification + systemic / in life observation / body weight / fetal weight
[18] = group: maternal, systemic / in life observation / body weight / body weight gain + systemic / in life observation / food consumption / food consumption
[19] = systemic / organ weight / liver / relative to body weight + systemic / pathology microscopic / liver / clear cell focus + systemic / …
[20] = group: developmental, developmental / developmental malformation / bone / exencephaly
[21] = group: maternal, reproductive / reproductive performance / resorptions / resorptions
[22] = group: maternal, reproductive / reproductive performance / resorptions / resorptions + systemic / in life observation / body weight / body weight + systemic…
[23] = systemic / clinical chemistry / sodium / sodium + systemic / in life observation / body weight / body weight gain + systemic / in life …
[24] = systemic / clinical chemistry / alanine aminotransferase (alt/sgpt) / alanine aminotransferase (alt/sgpt) + systemic / clinical chemistry / …
[25] = systemic / clinical chemistry / cholesterol / cholesterol + systemic / hematology / erythrocyte (rbc) count differential / erythrocyte (rbc…
[26] = systemic / in life observation / mortality / mortality + systemic / pathology gross / liver / discolored + systemic / pathology microscopic…
[27] = systemic / pathology microscopic / liver / cytomegaly
[28] = group: developmental, developmental / developmental malformation / general / [other]
[29] = group: maternal, systemic / in life observation / body weight / body weight + systemic / in life observation / clinical signs / skin ulceration
[30] = group: developmental, developmental / developmental malformation / bone / bipartite ossification + developmental / developmental malformation / bone / fused + …
[31] = group: maternal, systemic / in life observation / body weight / body weight
[32] = systemic / hematology / erythrocyte (rbc) count differential / erythrocyte (rbc) + systemic / hematology / mean corpuscular (cell) volume (…
[33] = group: developmental, developmental / developmental malformation / general / [other] + developmental / developmental malformation / general / anasarca + …
[34] = group: maternal, reproductive / reproductive performance / resorptions / resorptions + systemic / in life observation / body weight / body weight gain + …
[35] = group: maternal, systemic / organ weight / placenta / absolute
[36] = developmental / developmental malformation / general / [other] + developmental / developmental malformation / general / crown-rump length + …
[37] = developmental / developmental malformation / general / crown-rump length + systemic / in life observation / body weight / fetal weight
[38] = group: offspring, developmental / developmental malformation / bone / domed head + developmental / developmental malformation / nose / ecchymosis + systemic…
[39] = group: parental, systemic / organ weight / epididymis / absolute + systemic / organ weight / liver / absolute + systemic / organ weight / liver / relative to…
[40] = group: parental, systemic / organ weight / epididymis / absolute + systemic / organ weight / liver / absolute + systemic / pathology gross / sperm measure / …
[41] = group: reproductive, reproductive / reproductive performance / fertility / fertility + reproductive / offspring survival early / litter size / litter size + …
[42] = systemic / organ weight / liver / absolute + systemic / organ weight / liver / relative to body weight + systemic / pathology microscopic / …

Which results are given for `CN(C)C=O` [N,N-Dimethylformamide]?
LOAEL [1, 17]: > 300 mg/kg/day; NEL [1, 17]: 50 mg/kg/day; NOAEL [1, 17]: ≥ 300 mg/kg/day; LEL ([1]; group: developmental, systemic / in life observation / body weight / fetal weight): 100 mg/kg/day; LEL [1, 18]: 100 mg/kg/day; LOAEL [1, 18]: > 300 mg/kg/day; NEL [1, 18]: 50 mg/kg/day; NOAEL [1, 18]: ≥ 300 mg/kg/day; LOAEL [2, 19]: > 400 ppm; NEL [2, 19]: 25 ppm; NOAEL [2, 19]: ≥ 400 ppm; LEL ([2]; systemic / organ weight / liver / relative to body weight + systemic / pathology microscopic / liver / hypertrophy + systemic / clinical …): 100 ppm; LEL [3, 20]: 944 mg/kg/day; LOAEL [3, 20]: > 944 mg/kg/day; NEL [3, 20]: 378 mg/kg/day; NOAEL [3, 20]: ≥ 944 mg/kg/day; LEL [3, 21]: 378 mg/kg/day; NEL [3, 21]: < 378 mg/kg/day; LOAEL [3, 22]: > 944 mg/kg/day; NOAEL [3, 22]: ≥ 944 mg/kg/day; LOAEL [4, 23]: > 210 mg/kg/day; NOAEL [4, 23]: ≥ 210 mg/kg/day; LEL ([4]; systemic / in life observation / food consumption / food consumption): 69 mg/kg/day; NEL ([4]; systemic / in life observation / food consumption / food consumption + systemic / in life observation / body weight / body weight gain + …): 20 mg/kg/day; LOAEL [5, 24]: > 800 ppm; NOAEL [5, 24]: ≥ 800 ppm; LEL [5, 25]: 50 ppm; NEL [5, 25]: < 50 ppm; LEL [6]: 172 ppm; LOAEL [6]: > 172 ppm; NEL [6]: 18 ppm; NOAEL [6]: ≥ 172 ppm; LOAEL [7, 26]: > 1200 ppm; NOAEL [7, 26]: ≥ 1200 ppm; LEL [7, 27]: 150 ppm; NEL [7, 27]: < 150 ppm; LOAEL [8, 24]: > 1200 ppm; NOAEL [8, 24]: ≥ 1200 ppm; LEL ([8]; systemic / clinical chemistry / alkaline phosphatase (alp/alk) / alkaline phosphatase (alp/alk)): 300 ppm; NEL ([8]; systemic / clinical chemistry / alkaline phosphatase (alp/alk) / alkaline phosphatase (alp/alk) + systemic / clinical chemistry / aspartate …): 150 ppm; LEL [9, 28]: 400 mg/kg/day; LOAEL [9, 28]: > 400 mg/kg/day; NEL [9, 28]: 200 mg/kg/day; NOAEL [9, 28]: ≥ 400 mg/kg/day; LEL [9, 29]: 400 mg/kg/day; LOAEL [9, 29]: > 400 mg/kg/day; NEL [9, 29]: 200 mg/kg/day; NOAEL [9, 29]: ≥ 400 mg/kg/day; LEL [10, 30]: 450 ppm; LOAEL [10, 30]: > 450 ppm; NEL [10, 30]: 150 ppm; NOAEL [10, 30]: ≥ 450 ppm; LEL [10, 31]: 450 ppm; LOAEL [10, 31]: > 450 ppm; NEL [10, 31]: 150 ppm; NOAEL [10, 31]: ≥ 450 ppm; LEL [11]: 25 ppm; LOAEL [11]: > 400 ppm; NEL [11]: < 25 ppm; NOAEL [11]: ≥ 400 ppm; LOAEL [12, 24]: > 800 ppm; NOAEL [12, 24]: ≥ 800 ppm; LEL [12, 32]: 50 ppm; NEL [12, 32]: < 50 ppm; LOAEL [13, 33]: > 1510 mg/kg/day; NEL [13, 33]: 166 mg/kg/day; NOAEL [13, 33]: ≥ 1510 mg/kg/day; LEL ([13]; group: developmental, developmental / developmental malformation / general / [other] + developmental / developmental malformation / general / crown-rump length + …): 503 mg/kg/day; LOAEL [13, 34]: > 1510 mg/kg/day; NOAEL [13, 34]: ≥ 1510 mg/kg/day; LEL [13, 35]: 166 mg/kg/day; NEL [13, 35]: < 166 mg/kg/day; LOAEL [14, 36]: > 548 mg/kg/day; NOAEL [14, 36]: ≥ 548 mg/kg/day; LEL [14, 37]: 182 mg/kg/day; NEL [14, 37]: < 182 mg/kg/day; LEL [15, 38]: 545 mg/kg/day; LOAEL [15, 38]: > 1030 mg/kg/day; NEL [15, 38]: 185 mg/kg/day; NOAEL [15, 38]: ≥ 1030 mg/kg/day; LEL [15, 39]: 185 mg/kg/day; NEL [15, 39]: < 185 mg/kg/day; LOAEL [15, 40]: > 1030 mg/kg/day; NOAEL [15, 40]: ≥ 1030 mg/kg/day; NEL ([15]; group: reproductive, reproductive / reproductive performance / fertility / fertility): 185 mg/kg/day; LEL [15, 41]: 545 mg/kg/day; LOAEL [15, 41]: > 1030 mg/kg/day; NOAEL [15, 41]: ≥ 1030 mg/kg/day; LOAEL [16, 42]: > 246 mg/kg/day; NOAEL [16, 42]: ≥ 246 mg/kg/day; LEL ([16]; systemic / organ weight / liver / relative to body weight): 96 mg/kg/day; NEL ([16]; systemic / organ weight / liver / relative to body weight + systemic / clinical chemistry / alanine aminotransferase (alt/sgpt) / alanine …): 28 mg/kg/day
